Data: patent US20260234139A1, “PGDH INHIBITORS AND METHODS OF MAKING AND USING” (Epirium Bio Inc., priority 2023, published 2026)

How the values were obtained:
[1] = target: T1, 15-PGDH/HPGD (Homo sapiens, UniProt P15428); experiment: hPGDH inhibitor screening biochemical assay; conditions: 10 nM enzyme, 15 μM Prostaglandin E2, 0.25 mM NAD, fluorescence ex/em 340/485 nm
T1 construct: purchased R&D System 5660-DH
T1 sequence (P15428 1-266): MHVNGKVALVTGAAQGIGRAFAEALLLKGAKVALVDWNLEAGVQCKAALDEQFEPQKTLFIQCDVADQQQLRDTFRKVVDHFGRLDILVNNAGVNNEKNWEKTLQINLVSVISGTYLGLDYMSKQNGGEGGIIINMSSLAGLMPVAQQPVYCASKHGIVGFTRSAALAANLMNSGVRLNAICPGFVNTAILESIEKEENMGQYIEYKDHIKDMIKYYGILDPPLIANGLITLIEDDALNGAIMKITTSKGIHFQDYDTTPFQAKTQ
Procedure: A hydroxyprostaglandin dehydrogenase inhibition screening biochemical assay can be performed to assess the synthesized inhibitors provided herein. Provided herein is an exemplary biochemical assay for hPGDH inhibitor screening.
The in vitro biochemical assay can be performed in white, 384 plates in total 20 μl reaction volume consisting of 10 nM of 15-PGDH/HPGD (R&D System #5660-DH), 15 μM Prostaglandin E2 (Sigma, Cat #P5640-10 MG) and 0.25 mM B-Nicotinamide adenine dinucleotide sodium salt (Sigma, Cat #N0632-5G) made in reaction buffer (50 mM Tris-HCl, pH 7.5, 0.01% Tween 20) at 10-point dose response curve for test/tool compounds. Briefly, 5 μl (4×) of compounds solution and 5 μl (final concentration, 10 nM) of enzyme solution is added to white 384 well plates and incubated for 10 mins at 37° C. 5 μl (4×) of Prostaglandin E2 and 5 μl (4×) of β-Nicotinamide adenine dinucleotide sodium salt is added to the wells and incubated for 10 mins at room temperature. Fluorescence is recorded at ex/em=340 nm/485 nm.

[2] = test system: A549; experiment: A549 EC50 (cell assay, method not described); type: cell-based

SMILES | IC50 [1] [nM] | EC50 ([2]; Homo sapiens, A549, A549) [nM] | EC50 ([2]; A549) [nM]
CCOC1([C@@H](O)c2cnc3c(cnn3-c3cccc(-c4nnc[nH]4)c3)c2)CCC1 [Compound 83B] | 100 to 1000 | ≥ 1000 | 
CC(C)OC[C@H](O)c1cnc2c(cnn2-c2ccc(CCCC(=O)O)cc2)c1 [Compound 66B] | 100 to 1000 | 100 to 1000 | 
C[C@H]1C[C@H](OC[C@H](O)c2cnc3c(cnn3-c3ccc(C(=O)O)cc3)c2)C1 [Compound 127C] | 100 to 1000 | ≥ 1000 | 
CC(C)OC[C@H](O)c1cnc2c(cnn2-c2ccc(CCC(=O)O)cc2)c1 [Compound 69B] | 100 to 1000 | 100 to 1000 | 
CC(C)NC[C@H](O)c1cnc2c(cnn2-c2cccc(-c3nnc[nH]3)c2)c1 [Compound 27A, (R)-1-(1-(3-(4H-1,2,4-triazol-3-yl)phenyl)-1H-pyrazolo[3,4-b]pyridin-5-yl)-2-(isopropylamino) ethan-1-ol] | ≥ 1000 | ≥ 1000 | 
CCOC(C)(C)C(O)c1cnc2c(cnn2-c2cccc(-c3nnc[nH]3)c2)c1 (single isomer, unassigned) [Compound 34B] | 100 to 1000 |  | ≥ 1000
COC1([C@H](O)c2cnc3c(cnn3-c3cccc(-c4nnc[nH]4)c3)c2)CCC1 [Compound 65B] | ≥ 1000 | ≥ 1000 | 
O=C(O)c1ccc(-n2ncc3cc([C@@H](O)C4(OCC(F)F)CC4)cnc32)cc1 [Compound 72B] | ≥ 1000 | ≥ 1000 | 
CCCCC(C)(O)c1cnc2c(ccn2-c2cc(Cl)cc(-c3nnc[nH]3)c2)c1 (stereo not drawn) [Compound 15] | 100 to 1000 | ≥ 1000 | 
CC(C)OC[C@@H](O)c1cnc2c(cnn2-c2ccc(C(=O)O)cc2)c1 [Compound 48B] | < 100 | < 100 | 
COC(C)(C)C[C@@H](O)c1cnc2c(ccn2-c2cccc(-c3nnc[nH]3)c2)c1 [Compound 54A] | < 100 | < 100 | 
CC1(OC[C@H](O)c2cnc3c(cnn3-c3ccc(C(=O)O)cc3)c2)CCC1 [Compound 90A] | < 100 | 100 to 1000 | 
O[C@H](c1cnc2c(cnn2-c2cccc(-c3nnc[nH]3)c2)c1)[C@H]1CCOC1 [Compound 68B] | < 100 | < 100 | 
C[C@H]1C[C@@H](OC[C@H](O)c2cnc3c(cnn3-c3ccc(C(=O)O)cc3)c2)C1 [Compound 127A] | < 100 | ≥ 1000 | 
COCC[C@H](O)c1cnc2c(cnn2-c2cccc(-c3nnc[nH]3)c2)c1 [Compound 36B] | < 100 | 100 to 1000 | 
CCC1(OC[C@H](O)c2cnc3c(cnn3-c3ccc(C(=O)O)cc3)c2)CC1 [Compound 93A] | < 100 | 100 to 1000 | 
O[C@H](c1cnc2c(ccn2-c2cccc(-c3nnc[nH]3)c2)c1)C1CCC1 [Compound 10A] | < 100 | < 100 | 
CC1(COC[C@@H](O)c2cnc3c(cnn3-c3ccc(C(=O)O)cc3)c2)CC1 [Compound 106B] | < 100 | ≥ 1000 | 
C[C@H](OC1CCC1)[C@@H](O)c1cnc2c(cnn2-c2ccc(C(=O)O)cc2)c1 [Compound 108D] | < 100 | 100 to 1000 | 
O=C(O)c1ccc(-n2ncc3cc([C@@H](O)COC4CCCC4)cnc32)cc1 [Compound 89A] | < 100 | ≥ 1000 | 
CCOC1([C@H](O)c2cnc3c(cnn3-c3cccc(-c4nnc[nH]4)c3)c2)CCC1 [Compound 83A] | 100 to 1000 | 100 to 1000 | 
CC(C)C[C@@H](O)[C@@H](O)c1cnc2c(ccn2-c2cccc(-c3nnc[nH]3)c2)c1 [Compound 3D, (1S,2R)-4-methyl-1-[1-[3-(4H-1,2,4-triazol-3-yl)phenyl]pyrrolo[2,3-b]pyridin-5-yl]pentane-1,2-diol] | < 100 |  | < 100
CC(C)OCC[C@H](O)c1cnc2c(ccn2-c2cccc(-c3nnc[nH]3)c2)c1 [Compound 41A] | < 100 | 100 to 1000 | 

Next, values leading:

IC50 [1] [nM] | EC50 ([2]; Homo sapiens, A549, A549) [nM] | EC50 ([2]; A549) [nM] | SMILES
< 100 | < 100 |  | CC(C)(C)OC[C@@H](O)c1cnc2c(ccn2-c2cccc(-c3nnc[nH]3)c2)c1 [Compound 31B]
< 100 | 100 to 1000 |  | O[C@H](c1cnc2c(cnn2-c2cccc(-c3nnc[nH]3)c2)c1)C1COC1 [Compound 28B]
< 100 | 100 to 1000 |  | O=C(O)c1ccc(-n2ncc3cc([C@H](O)COCC4(C(F)(F)F)CC4)cnc32)cc1 [Compound 113B]
< 100 | < 100 |  | O=C(O)CCc1ccc(-n2ncc3cc([C@@H](O)COC4CC4)cnc32)cc1F [Compound 86A]
< 100 | 100 to 1000 |  | O=C(O)c1ccc(-n2ncc3cc([C@@H](O)COC4(C(F)(F)F)CCC4)cnc32)cc1 [Compound 115A]
< 100 | < 100 |  | COC(C)(C)CC[C@@H](O)c1cnc2c(cnn2-c2cccc(-c3nnc[nH]3)c2)c1 [Compound 55B]
< 100 | 100 to 1000 |  | O[C@H](c1cnc2c(cnn2-c2cccc(-c3nnc[nH]3)c2)c1)[C@@H]1CCOC1 [Compound 68D]
< 100 | < 100 |  | CC(F)(F)[C@@H](O)c1cnc2c(ccn2-c2cccc(-c3nnc[nH]3)c2)c1 [Compound 5A]
< 100 | 100 to 1000 |  | O[C@@H](COC1CC1)c1cnc2c(ccn2-c2cccc(-c3nnc[nH]3)c2)n1 [Compound 38B]
< 100 | ≥ 1000 |  | CC(C)OC[C@H](O)c1cnc2c(ccn2-c2ccc(C(=O)O)cc2)n1 [Compound 49A]
< 100 | < 100 |  | CC1(OC[C@@H](O)c2cnc3c(cnn3-c3ccc(C(=O)O)cc3)c2)CCC1 [Compound 90B]
< 100 | < 100 |  | NC(=O)c1ccc(-n2ncc3cc([C@H](O)COC4CCC4)cnc32)cc1 [Compound 81A]
< 100 | 100 to 1000 |  | CC(C)OC[C@H](O)c1cnc2c(ccn2-c2cccc(-c3nnc[nH]3)c2)n1 [Compound 20B]
< 100 | < 100 |  | CC(C)OC[C@@H](O)c1cnc2c(cnn2-c2ccc(CCCC(=O)O)cc2)c1 [Compound 66A]
< 100 | < 100 |  | CC(C)(OCC(F)F)[C@@H](O)c1cnc2c(cnn2-c2cccc(-c3nnc[nH]3)c2)c1 [Compound 61A]
< 100 | < 100 |  | O[C@@H](c1cnc2c(cnn2-c2cccc(-c3nnc[nH]3)c2)c1)[C@H]1CCOC1 [Compound 68C]
< 100 | < 100 |  | C[C@@H](OC1CCC1)[C@H](O)c1cnc2c(cnn2-c2ccc(C(=O)O)cc2)c1 [Compound 108A]
< 100 | 100 to 1000 |  | CC(C)NC[C@@H](O)c1cnc2c(cnn2-c2cccc(-c3nnc[nH]3)c2)c1 [Compound 27B, (S)-1-(1-(3-(4H-1,2,4-triazol-3-yl)phenyl)-1H-pyrazolo[3,4-b]pyridin-5-yl)-2-(isopropylamino) ethan-1-ol]
< 100 | < 100 |  | O[C@H](c1cnc2c(ccn2-c2cc(Cl)cc(-c3nnc[nH]3)c2)c1)C1CCC(F)(F)CC1 [Compound 12B]
< 100 | < 100 |  | O[C@@H](c1cnc2c(cnn2-c2cccc(-c3nnc[nH]3)c2)c1)[C@@H]1CCOC1 [Compound 68A]
< 100 | 100 to 1000 |  | CCCC(F)(F)[C@@H](O)c1cnc2c(ccn2-c2cccc(-c3nnc[nH]3)c2)c1 [Compound 4A]
< 100 | < 100 |  | CC1(OC[C@@H](O)c2cnc3c(cnn3-c3ccc(C(=O)O)cc3)c2)CC1 [Compound 92B]
